Tested on: 293T cells
Assay: cells
Type: cell-based
Conditions: Homo sapiens, HEK-293T

Structure (SMILES)	IC50 (Table 2-2, 48 hours, CCK8) [µM]	IC50 (Table 4-3, CCK8) [µM]
CCCCCCCCC(CCCCCC)C(=O)OCCCCCCN(CCCCO)CCCCCCOC(=O)C(CCCCCC)CCCCCCCC (stereo not shown) [ALC0315]	145	145
CCCCCCCC/C=C\CCCCCCCC(=O)OC[C@H](C[N+](C)(C)C)OC(=O)CCCCCCC/C=C\CCCCCCCC [DOTAP, N-(2,3-dioleoyloxy)propyl)-N,N,N-trimethylammonium chloride]	40.7	40.7

Reference: patent EP4570271A1, “METAL-PHOSPHOLIPID COMPLEX, METAL-PHOSPHOLIPID COMPLEX PARTICLE, DRUG-LIPID PARTICLE, METHOD FOR PREPARING SAME, AND USE THEREOF” (priority 2022, dated 2024)
